Among the data in PubChem BioAssay AID330 (DTP/NCI, 2004) are T/C values, retold here.

Where “and” joins values, the source holds several entries; their conditions need not be identical. Identical values can stand only once. Inconclusive results and toxic doses are left out. Peptide text beside a SMILES is read from it.

This assay concerns P388 leukemia ip, CD2F1 mice, survival T/C. As to the kind of experiment: NCI In Vivo Anticancer Drug Screen. Data for tumor model P388 Leukemia (intraperitoneal) in CD2F1 (CDF1) mice. The note with it: endpoint: median survival time, higher = longer survival. In outline: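 Mice carrying the transplanted tumor received test compound or vehicle. Survival was recorded in each group, and the value is the treated-group measurement divided by that of the vehicle-treated control group.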

[1] abbreviates: dose: 50.0 mg/kg/injection, schedule: Q01DX009 (ip), vehicle: Klucel (hydroxypropylcellulose) (HPC).
Setting [2] is: dose: 100.0 mg/kg/injection, schedule: Q01DX009 (ip), vehicle: Klucel (hydroxypropylcellulose) (HPC).
[3] abbreviates: dose: 200.0 mg/kg/injection, schedule: Q01DX009 (ip), vehicle: Klucel (hydroxypropylcellulose) (HPC).
Where [4] appears, read: dose: 60.0 mg/kg/injection, schedule: Q01DX005 (ip), vehicle: saline with Tween-80.
Setting [5] is: dose: 120.0 mg/kg/injection, schedule: Q01DX005 (ip), vehicle: saline with Tween-80.
[6] abbreviates: dose: 240.0 mg/kg/injection, schedule: Q01DX005 (ip), vehicle: saline with Tween-80.
[7] abbreviates: dose: 50.0 mg/kg/injection, schedule: Q01DX005 (ip), vehicle: saline with Tween-80.
Setting [8] is: dose: 100.0 mg/kg/injection, schedule: Q01DX005 (ip), vehicle: saline with Tween-80.
Setting [9] is: dose: 200.0 mg/kg/injection, schedule: Q01DX005 (ip), vehicle: saline with Tween-80.
[10] abbreviates: dose: 100.0 mg/kg/injection, schedule: Q01DX001 (ip), vehicle: Klucel (hydroxypropylcellulose) (HPC).
The mark [11] stands for this setting: dose: 50.0 mg/kg/injection, schedule: Q01DX009 (ip), vehicle: saline with Tween-80.
The mark [12] stands for this setting: dose: 100.0 mg/kg/injection, schedule: Q01DX009 (ip), vehicle: saline with Tween-80.
The mark [13] stands for this setting: dose: 200.0 mg/kg/injection, schedule: Q01DX009 (ip), vehicle: saline with Tween-80.
[14] abbreviates: dose: 12.5 mg/kg/injection, schedule: Q01DX005 (ip), vehicle: Klucel (hydroxypropylcellulose) (HPC).

With `CCn1c(=O)c2[nH]c(=S)[nH]c2n(C2CC2)c1=O`, the T/C under setting [1] was 97 % of control, the T/C under setting [2] was 101 % of control and the T/C under setting [3] is 113 % of control.
For `COC(=O)C1C2C=CC(C1C(=O)OC)C1C(C(=O)NN)C(C(=O)NN)C21` (stereo not drawn), the T/C by setting is: under setting [4], 98 % of control; under setting [5], 97 % of control; under setting [6], 96 % of control.
On to `O=C([O-])C(=O)[O-].[Co+3].[NH2-].[NH2-].[NH2-].[NH2-].[O-][Cl+3]([O-])([O-])O`, for which the T/C (dose: 12.5 mg/kg/injection, schedule: Q04DX003 (ip), vehicle: water) is 89 % of control; the T/C (dose: 25.0 mg/kg/injection, schedule: Q04DX003 (ip), vehicle: water) was 95 % of control; the T/C (dose: 50.0 mg/kg/injection, schedule: Q04DX003 (ip), vehicle: water) was 98 % of control; the T/C (dose: 100.0 mg/kg/injection, schedule: Q04DX003 (ip), vehicle: water) is 94 % of control.
Take `CC(=O)c1nn(-c2ccccc2)c(=Nc2ccccc2)cc1C`: the T/C reads like this: under setting [7], 100 % of control; under setting [8], 101 % of control; under setting [9], 98 % of control.
On to `CCCCCCCCCCCCCCCC(=O)N(C(C)CCCN(CC)CC)C(C)CCCN(CC)CC` (stereo not drawn), for which the T/C (dose: 1.56 mg/kg/injection, schedule: Q01DX009 (ip), vehicle: water) was 98 % of control; the T/C (dose: 3.13 mg/kg/injection, schedule: Q01DX009 (ip), vehicle: water) was 100 % of control; the T/C (dose: 6.25 mg/kg/injection, schedule: Q01DX009 (ip), vehicle: water) is 99 % of control; the T/C (dose: 12.5 mg/kg/injection, schedule: Q01DX009 (ip), vehicle: water) was 92 % of control.
In the case of `N#CC1SC(C#N)C(c2ccc(Cl)cc2)OC1c1ccc(Cl)cc1` (stereo not drawn), the T/C is, setting by setting: (dose: 6.25 mg/kg/injection, schedule: Q01DX005 (ip), vehicle: saline with Tween-80) 93 % of control; (dose: 12.5 mg/kg/injection, schedule: Q01DX005 (ip), vehicle: saline with Tween-80) 91 % of control; (dose: 25.0 mg/kg/injection, schedule: Q01DX005 (ip), vehicle: saline with Tween-80) 90 % of control; under setting [8], 91 % of control; under setting [9], 104 % of control.
Regarding `O=C(O)Cc1cc(Cl)ccc1C(=O)O`, the T/C was 97 % of control under setting [7], 97 % of control under setting [8] and 97 % of control under setting [9].
Turning to `CC(C)(C)C(=O)C=C(C(F)(F)F)C(F)(F)F`, the T/C (dose: 6.25 mg/kg/injection, schedule: Q01DX009 (ip), vehicle: saline) is 91 % of control; the T/C (dose: 12.5 mg/kg/injection, schedule: Q01DX009 (ip), vehicle: saline) was 86 % of control; the T/C (dose: 25.0 mg/kg/injection, schedule: Q01DX009 (ip), vehicle: saline) is 113 % of control.
In the case of `CCOC(=O)Nc1cc(NC/C(=N/O)c2ccc(Cl)cc2)c([N+](=O)[O-])c(N)n1`, the T/C (dose: 50.0 mg/kg/injection, schedule: Q01DX001 (ip), vehicle: Klucel (hydroxypropylcellulose) (HPC)) is 90 % of control and the T/C under setting [10] was 87 % of control.
As to `O=C1C2C3CCC(C2C(=O)N1CO)C1C2C(=O)N(CO)C(=O)C2C31` (stereo not drawn), the T/C reads like this: (dose: 12.5 mg/kg/injection, schedule: Q01DX009 (ip), vehicle: saline with Tween-80) 105 % of control; (dose: 25.0 mg/kg/injection, schedule: Q01DX009 (ip), vehicle: saline with Tween-80) 102 % of control and 116 % of control; under setting [11], 166 % of control; under setting [12], 205 % of control and 208 % of control.
For `CCCCCCC(=O)/C=C/c1ccc(OC)c(OC)c1`, the T/C under setting [11] was 107 % of control, the T/C under setting [12] was 114 % of control and the T/C under setting [13] was 115 % of control.
Regarding `Cc1ccc(-c2cs/c(=N\N=C3/CSC(=O)N3Cc3ccccc3)n2-c2ccccc2)cc1`, the T/C by setting is: (dose: 100.0 mg/kg/injection, schedule: Q04DX002 (ip), vehicle: Klucel (hydroxypropylcellulose) (HPC)) 98 % of control; (dose: 200.0 mg/kg/injection, schedule: Q04DX002 (ip), vehicle: Klucel (hydroxypropylcellulose) (HPC)) 89 % of control.
`COC(=S)c1cccc(C(=S)OC)c1`: the T/C by setting is: under setting [11], 108 % of control; under setting [12], 115 % of control; under setting [13], 108 % of control.
In the case of `CC(COCNc1ccccc1)C(=O)O` (stereo not drawn), the T/C is 103 % of control under setting [1], 103 % of control under setting [2] and 100 % of control under setting [3].
Regarding `CC=O`, the T/C (dose: 0.5 % in 0.5 ml injection vol, schedule: Q01DX009 (ip), vehicle: water) is 100 % of control and 103 % of control and 109 % of control; the T/C (dose: 1.0 % in 0.5 ml injection vol, schedule: Q01DX009 (ip), vehicle: water) was 104 % of control and 112 % of control; the T/C (dose: 2.0 % in 0.5 ml injection vol, schedule: Q01DX009 (ip), vehicle: water) was 117 % of control.
Consider `O=[N+]([O-])c1cccc2c(Nc3ccc(S(=O)(=O)Nc4nccs4)cc3)c3ccccc3nc12`, for which the T/C runs as follows: (dose: 15.0 mg/kg/injection, schedule: Q01DX005 (ip), vehicle: saline with Tween-80) 95 % of control; (dose: 30.0 mg/kg/injection, schedule: Q01DX005 (ip), vehicle: saline with Tween-80) 100 % of control; under setting [4], 102 % of control and 97 % of control.
In the case of `CC(=O)O[C@@H]1C[C@H]2C(C)(C)C(=O)C=C[C@]2(C)[C@H]2CC[C@]3(C)C(=CC(=O)O[C@]3(O)c3ccoc3)[C@@]21C`, the T/C was 95 % of control (dose: 1.0 mg/kg/injection, schedule: Q01DX005 (ip), vehicle: Klucel (hydroxypropylcellulose) (HPC)); 100 % of control (dose: 2.0 mg/kg/injection, schedule: Q01DX005 (ip), vehicle: Klucel (hydroxypropylcellulose) (HPC)); 95 % of control (dose: 4.0 mg/kg/injection, schedule: Q01DX005 (ip), vehicle: Klucel (hydroxypropylcellulose) (HPC)); 95 % of control (dose: 8.0 mg/kg/injection, schedule: Q01DX005 (ip), vehicle: Klucel (hydroxypropylcellulose) (HPC)).
For the compound `Cc1c(O)c2c(c(O)c1Cc1cccc(C#N)c1)C(=O)c1ccccc1C2=O`, where the note is “dose: 25.0 mg/kg/injection, schedule: Q01DX009 (ip), vehicle: other”, the T/C is 89 % of control.
Consider `COC1C=CCCC1` (stereo not drawn), for which the T/C is, setting by setting: under setting [10], 108 % of control; (dose: 200.0 mg/kg/injection, schedule: Q01DX001 (ip), vehicle: Klucel (hydroxypropylcellulose) (HPC)) 117 % of control; (dose: 400.0 mg/kg/injection, schedule: Q01DX001 (ip), vehicle: Klucel (hydroxypropylcellulose) (HPC)) 106 % of control.
As to `CC(C)CC(NC(=O)C(N)Cc1c[nH]c2ccccc12)C(N)=O` (stereo not drawn) (H-Trp-Leu-NH2; configuration not given here), the T/C is 95 % of control (dose: 200.0 mg/kg/injection, schedule: Q04DX003 (ip), vehicle: saline) and 106 % of control (dose: 400.0 mg/kg/injection, schedule: Q04DX003 (ip), vehicle: saline).
Take `ClCc1ccccc1CCl`: the T/C (dose: 5.0 mg/kg/injection, schedule: Q04DX003 (ip), vehicle: saline with Tween-80) is 106 % of control; the T/C (dose: 10.0 mg/kg/injection, schedule: Q04DX003 (ip), vehicle: saline with Tween-80) is 94 % of control; the T/C (dose: 20.0 mg/kg/injection, schedule: Q04DX003 (ip), vehicle: saline with Tween-80) was 100 % of control; the T/C (dose: 40.0 mg/kg/injection, schedule: Q04DX003 (ip), vehicle: saline with Tween-80) is 117 % of control.
With `COc1ccc(OC)c(NC(=S)NC(=O)c2cccc(Br)c2)c1`, the T/C by setting is: under setting [4], 95 % of control; under setting [5], 92 % of control; under setting [6], 89 % of control.
On to `CN(CCCCC1CCCN(C(=O)c2ccccc2)C1)C(=O)c1ccccc1` (stereo not drawn), for which the T/C is, setting by setting: under setting [14], 96 % of control; (dose: 25.0 mg/kg/injection, schedule: Q01DX005 (ip), vehicle: Klucel (hydroxypropylcellulose) (HPC)) 94 % of control; (dose: 50.0 mg/kg/injection, schedule: Q01DX005 (ip), vehicle: Klucel (hydroxypropylcellulose) (HPC)) 103 % of control and 97 % of control.
`O=S1(=O)CS(=O)(=O)OCCCO1`: the T/C runs as follows: (dose: 6.25 mg/kg/injection, schedule: Q01DX005 (ip), vehicle: Klucel (hydroxypropylcellulose) (HPC)) 151 % of control; under setting [14], 169 % of control.
